Experimental data: paper PMC5745808 (Biochemistry, 2016)
Where two headings read alike, the source gives them in different places. Peptide text beside a SMILES is read from it. * marks the point of attachment. Cbz = O=C(OCc1ccccc1)*

Tests used:
i-20S β5i = i-20S β5i (Homo sapiens, UniProt P20618+P28062); details: ref [20], cited from earlier work
M. tuberculosis = details: under nitrosative stress; ref [20]; cited from earlier work
Mtb20SOG [1] = biological target: T1, Mtb20SOG (Mycobacterium tuberculosis, UniProt P9WHT9); details: ref [20], cited from earlier work
T1 sequence (P9WHT9 58-291): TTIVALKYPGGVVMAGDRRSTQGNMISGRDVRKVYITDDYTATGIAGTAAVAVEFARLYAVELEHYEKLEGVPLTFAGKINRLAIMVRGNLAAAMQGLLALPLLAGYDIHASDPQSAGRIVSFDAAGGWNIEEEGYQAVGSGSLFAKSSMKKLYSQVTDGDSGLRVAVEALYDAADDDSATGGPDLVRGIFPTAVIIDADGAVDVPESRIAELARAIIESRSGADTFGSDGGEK
T1 sequence (P9WHU1 9-248 partner): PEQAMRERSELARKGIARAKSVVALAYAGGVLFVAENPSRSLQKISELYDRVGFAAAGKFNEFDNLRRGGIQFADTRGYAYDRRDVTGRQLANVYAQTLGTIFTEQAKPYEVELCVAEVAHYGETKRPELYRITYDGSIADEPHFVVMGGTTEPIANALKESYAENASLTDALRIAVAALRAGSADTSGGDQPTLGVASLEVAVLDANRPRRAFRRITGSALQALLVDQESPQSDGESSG

c-20S β5c = c-20S β5c (Homo sapiens, UniProt P20618+P28074); details: ref [20], cited from earlier work
Mtb20SOG [2] = biological target: T1, Mtb20SOG; experiment: biochemical

SMILES	SIapp IC50β5i/IC50Mtb20SOG (i-20S β5i; apparent selectivity index)	IC50 (i-20S β5i; read-out: IC50 i-20S β5i (ANW), Ac-ANW-AMC) [µM]	affinity for Mtb 20S stronger than for human i-20S (i-20S β5i) [fold]	bactericidal activity against nonreplicating bacteria (M. tuberculosis)	more potent against Mtb20SOG than DPLG-4 (Mtb20SOG [1]; DPLG-4 has a 4-isopropyl phenyl P1 group) [fold]	more potent against Mtb20SOG than ML9 (Mtb20SOG [1]; ML9 has a 2,4-difluorobenzyl P1 group) [fold]	IC50 (Mtb20SOG [1]; read-out: IC50 Mtb20SOG (LLVY), suc-LLVY-AMC) [µM]	SIapp IC50β5c/IC50Mtb20SOG (c-20S β5c; apparent selectivity index)	IC50 (c-20S β5c; read-out: IC50 c-20S β5c (LLVY), suc-LLVY-AMC) [µM]	affinity for Mtb 20S stronger than for human c-20S (c-20S β5c) [fold]	IC50 (Mtb20SOG [2]) [µM]
CCN(CC)C(=O)C[C@H](NC(=O)CCc1ccccc1)C(=O)N[C@@H](Cc1ccc(F)cc1)C(=O)NCc1cccc2ccccc12 [DPLG-2]	3647	54.7	3647	bactericidal activity	51	4	0.015	4667	70	4667	–
CC(C)C[C@@H](C=O)NC(=O)[C@H](CC(C)C)NC(=O)[C@H](CC(C)C)NC(=O)OCc1ccccc1 [MG-132] (Cbz-Leu-Leu-Leu-aldehyde)	–	–	–	–	–	–	–	–	–	–	1.71 ± 0.079
